# Laboratory results taken from ChEMBL document CHEMBL5131395 (Eur J Med Chem, 2022).
# The source made the active and inactive calls. The rule behind the calls is not given here.
# Experiments:
# [1] = Half life in rat at 60 mg/kg, po by LC-MS/MS analysis; format: ADME, organism-based; details: in vivo
# [2] = AUC (0 to t) in rat at 60 mg/kg, po by LC-MS/MS analysis; format: ADME, organism-based; design: dose 60 mg/kg, route po; details: in vivo
# [3] = Tmax in rat at 60 mg/kg, po by LC-MS/MS analysis; format: ADME, organism-based; details: in vivo
# [4] = Cmax in rat at 60 mg/kg, po by LC-MS/MS analysis; format: ADME, organism-based; design: dose 60 mg/kg, route po; details: in vivo
# [5] = Clearance in rat at 60 mg/kg, po by LC-MS/MS analysis; format: ADME, organism-based; details: in vivo
# [6] = AUC (0 to infinity) in rat at 60 mg/kg, po by LC-MS/MS analysis; format: ADME, organism-based; design: time infinity, dose 60 mg/kg, route po; details: in vivo
# [7] = target: Autotaxin (Homo sapiens, UniProt Q13822); test: Inhibition of human ATX using FS-3 as substrate preincubated for 45 mins followed by substrate addition measured every 1 min for 30 mins by fluorescence based microplate reader analysis
# [8] = Downregulation of TNF-alpha expression in lung tissue of BLM induced C57BL/6J mouse lung fibrosis model assessed as fold reduction in TNF-alpha expression level at 60 mg/kg, ip by qRT-PCR analysis; format: functional
# [9] = test system: Mus musculus; test: (§1) Antifibrotic activity against BLM induced C57BL/6J mouse lung fibrosis model assessed as improvement in lung architecture by measuring appearance of fibrotic lesions at 60 mg/kg, ip pretreated with compound administered once daily for 3 days followed by BLM treatment and measured after 28 days by Masson staining based microscopic analysis; format: functional, organism-based; details: time 31.0 day
# [10] = Downregulation of IL-6 expression in lung tissue of BLM induced C57BL/6J mouse lung fibrosis model assessed as fold reduction in IL-6 expression level at 60 mg/kg, ip by qRT-PCR analysis; format: functional
# [11] = In vivo inhibition of ATX in lung homogenate of BLM induced C57BL/6J mouse lung fibrosis model assessed as reduction in ATX activity using FS-3 as substrate at 60 mg/kg, ip by fluorescence based microplate reader analysis (reference value: 7.78%); format: functional
# [12] = Downregulation of TGF-beta expression in lung tissue of BLM induced C57BL/6J mouse lung fibrosis model assessed as fold reduction in TGF-beta expression level at 60 mg/kg, ip by qRT-PCR analysis; format: functional
# [13] = test system: Mus musculus; test: Antifibrotic activity against BLM induced C57BL/6J mouse lung fibrosis model assessed as recovery of body weight at 60 mg/kg, ip pretreated with compound administered once daily for 3 days followed by BLM treatment and measured after 28 days; format: functional, organism-based; details: time 31.0 day
# [14] = test system: Mus musculus; test: as §1, with “of conterminous” for “of”, “walls” for “lesions”, “hematoxylin and eosin” for “Masson”; format: functional, organism-based; details: time 31.0 day
# [15] = test system: Mus musculus; test: as §1, with “of conterminous” for “of”, “walls” for “lesions”; format: functional, organism-based; details: time 31.0 day
# [16] = test system: Mus musculus; test: as §1, with “hematoxylin and eosin” for “Masson”; format: functional, organism-based; details: time 31.0 day
# [17] = Cytotoxicity against human HBE cells assessed as lethal dose; format: toxicity, cell-based; details: HBE cells (epithelial cell line), read-out: LD50 (the source's name)
# [18] = In vivo inhibition of ATX in lung homogenate of BLM induced C57BL/6J mouse lung fibrosis model assessed as reduction in ATX activity using FS-3 as substrate at 30 mg/kg, ip by fluorescence based microplate reader analysis (reference value: 7.78%); format: functional
# [19] = In vivo inhibition of ATX in BALF of BLM induced C57BL/6J mouse lung fibrosis model assessed as reduction in ATX activity using FS-3 as substrate at 30 to 60 mg/kg, ip by fluorescence based microplate reader analysis (reference value: 4.50%); format: functional, Bronchoalveolar lavage; details: dose 30-60 mg/kg
# [20] = Downregulation of TGF-beta expression in lung tissue of BLM induced C57BL/6J mouse lung fibrosis model assessed as fold reduction in TGF-beta expression level at 30 to 60 mg/kg, ip by qRT-PCR analysis; format: functional; details: dose 30-60 mg/kg
# [21] = test system: Mus musculus; test: Antifibrotic activity against BLM induced C57BL/6J mouse lung fibrosis model assessed as recovery of body weight at 30 to 60 mg/kg, ip pretreated with compound administered once daily for 3 days followed by BLM treatment and measured after 28 days; format: functional, organism-based; details: dose 30-60 mg/kg, time 31.0 day
# [22] = Downregulation of IL-6 expression in lung tissue of BLM induced C57BL/6J mouse lung fibrosis model assessed as fold reduction in IL-6 expression level at 30 to 60 mg/kg, ip by qRT-PCR analysis; format: functional; details: dose 30-60 mg/kg
# [23] = test system: Mus musculus; test: (§2) Antifibrotic activity against BLM induced C57BL/6J mouse lung fibrosis model assessed as improvement in lung architecture by measuring appearance of conterminous fibrotic walls at 30 to 60 mg/kg, ip pretreated with compound administered once daily for 3 days followed by BLM treatment and measured after 28 days by Masson staining based microscopic analysis; format: functional, organism-based; details: dose 30-60 mg/kg, time 31.0 day
# [24] = Downregulation of TNF-alpha expression in lung tissue of BLM induced C57BL/6J mouse lung fibrosis model assessed as fold reduction in TNF-alpha expression level at 30 to 60 mg/kg, ip by qRT-PCR analysis; format: functional; details: dose 30-60 mg/kg
# [25] = test system: Mus musculus; test: as §1, with “lesions at 30 to 60 mg/kg,” for “lesions at 60 mg/kg,”, “days by hematoxylin and eosin staining based” for “days by Masson staining based”; format: functional, organism-based; details: dose 30-60 mg/kg, time 31.0 day
# [26] = test system: Mus musculus; test: as §1, with “lesions at 30 to 60 mg/kg,” for “lesions at 60 mg/kg,”; format: functional, organism-based; details: dose 30-60 mg/kg, time 31.0 day
# [27] = test system: Mus musculus; test: as §2, with “hematoxylin and eosin” for “Masson”; format: functional, organism-based; details: dose 30-60 mg/kg, time 31.0 day
smiles,measurement,setting,value
CCn1cc(NC(=O)OCc2cc(Cl)cc(Cl)c2)c2cc(-c3nc(CN4CCOCC4)cs3)ccc21,half-life,[1],2.56 h
same,AUCt,[2],240 ng·h/mL
same,Tmax,[3],2.67 h
same,Cmax,[4]; read-out: Cmax,50 ng/mL
same,CL/F,[5],6.35 mL/min/kg
same,AUC,[6],240 ng·h/mL
CCn1cc(NC(=O)NCc2ccc(Cl)cc2)c2cc(-c3nc(CN(CCO)CCO)cs3)ccc21,IC50,[7],30 nM
CCc1nc2c(C)cc(N3CCN(CC(=O)N4CC(O)C4)CC3)cn2c1N(C)c1nc(-c2ccc(F)cc2)c(C#N)s1 [ZIRITAXESTAT],fold change (FC),[8],2
same,Activity,[9],Active
same,fold change (FC),[10],2
same,inhibition in vivo at 60 mg/kg,[11],5.54%
same,fold change (FC),[12],2
same,Activity,[13],Active
same,Activity,[14],Active
same,Activity,[15],Active
same,Activity,[16],Active
CCn1cc(NC(=O)NCc2ccc(OC)c(Cl)c2)c2cc(-c3nc(CN(CCO)CCO)cs3)ccc21,CC50,[17],> 20000 nM
same,half-life,[1],3.11 h
same,inhibition in vivo at 30 mg/kg,[18],5.59%
same,inhibition (INH),[19],3.23%
same,inhibition in vivo at 60 mg/kg,[11],5.03%
same,fold change (FC),[20],2
same,AUC(0-t),[2],670 ng·h/mL
same,Activity,[21],Active
same,Tmax,[3],3.91 h
same,fold change (FC),[22],2
same,Activity,[23],Active
same,fold change (FC),[24],2
same,Cmax,[4],131 ng/mL
same,Activity,[25],Active
same,Activity,[26],Active
same,IC50,[7],2.17 nM
same,Activity,[27],Active
same,AUC,[6],680 ng·h/mL
